Patent US20090318500A1, “4-(2, 6-Dichloro-benzoylamino)-1H-pyrazole-3-carboxylic acid (1-methanesulphonyl-piperidin-4-yl)-amide for the Treatment of Cancer” (Astex Therapeutics limited, priority 2006, published 2009)
Read-outs that look alike come from different tables or passages of the source.

What was measured:
[1] = test system: malignant cells from B-cell chronic lymphocytic leukemia (B-CLL); settings: in vitro; cited from earlier work
[2] = Vapour sorption/desorption analysis; assay type: physicochemical; settings: 25 °C
Procedure: Approximately 20 mg of sample was placed into a wire-mesh vapour sorption balance pan and loaded into an ‘IgaSorp’ vapour sorption balance (Hiden Analytical Instruments) held at 25±0.1° C. The sample was then dried by maintaining a 0% humidity environment (using mass flow control apparatus) until no further weight change was recorded. Subsequently, the sample was then subjected to a ramping profile from 0-90% relative humidity (% RH) at 10% RH increments, maintaining the sample at each step until equilibration had been attained (99.5% step completion).
Upon reaching equilibration, the % RH within the apparatus was ramped to the next step and the equilibration procedure repeated. After completion of the sorption cycle, the sample was then dried using the same procedure. The weight change during the sorption/desorption cycles was then monitored, allowing for the hygroscopic nature of the sample to be determined.

[3] = Determination of oral bioavailability; assay type: in vivo; settings: balb/c, mouse, plasma, 5 mg/kg, mice
Procedure: The oral bioavailability of the compound of formula (I) may be determined as follows.
The test compound is administered as a solution both I.V. and orally to balb/c mice at the following dose level and dose formulations; • 1 mg/kg IV formulated in 10%DMSO/90% (2-hydroxypropyl)-β-cyclodextrin (25% w/v); and • 5 mg/kg PO formulated in 10% DMSO/20% water/70% PEG200.
At various time points after dosing, blood samples are taken in heparinised tubes and the plasma fraction is collected for analysis. The analysis is undertaken by LC-MS/MS after protein precipitation and the samples are quantified by comparison with a standard calibration line constructed for the test compound. The area under the curve (AUC) is calculated from the plasma level vs time profile by standard methods. The oral bioavailability as a percentage is calculated from the following equation: […]

[4] = test system: human tumour derived cell lines; assay: Xenograft studies; assay type: in vivo, nude mice; settings: sub-cutaneous xenografts, dosed orally
Description: These biomarkers include suppression of phosphorylation of substrates of the cyclin dependent kinases e.g. retinoblastoma protein. The compound is effective when given in a range of different schedules including chronic dosing for several weeks.

CDK1/CyclinB = biological target: T1, CDK1/CyclinB (Homo sapiens, UniProt P06493); assay: Activated CDK1/CyclinB kinase inhibitory activity assay; assay type: biochemical
T1 construct: purchased Upstate Discovery
Procedure: CDK1/CyclinB assay is identical to the CDK2/CyclinA above except that CDK1/CyclinB (Upstate Discovery) is used and the enzyme is diluted to 6.25 nM.

HCT-116 cell line = assay: Anti-proliferative activity, Alamar Blue assay; assay type: cell-based, human; settings: for IC50: read-out: HCT-116 cell proliferation IC50, 72 hours with compound
Procedure: (§1) Inhibition of cell growth is measured using the Alamar Blue assay (Nociari, M. M, Shalev, A., Benias, P., Russo, C. Journal of Immunological Methods 1998, 213, 157-167). The method is based on the ability of viable cells to reduce resazurin to its fluorescent product resorufin. For each proliferation assay cells are plated onto 96 well plates and allowed to recover for 16 hours prior to the addition of inhibitor compounds for a further 72 hours. At the end of the incubation period 10% (v/v) Alamar Blue is added and incubated for a further 6 hours prior to determination of fluorescent product at 535nM ex/590nM em. In the case of the non-proliferating cell assay cells are maintained at confluence for 96 hour prior to the addition of inhibitor compounds for a further 72 hours. The number of viable cells is determined by Alamar Blue assay as before. Cell lines can be obtained from the ECACC (European Collection of cell Cultures).
as §1, with “535 nM ex/590 nM” for “535nM ex/590nM”, “EC ACC” for “ECACC”

[5] = test system: transcription in HCT-116 cells

T1 sequence (P06493 whole entry): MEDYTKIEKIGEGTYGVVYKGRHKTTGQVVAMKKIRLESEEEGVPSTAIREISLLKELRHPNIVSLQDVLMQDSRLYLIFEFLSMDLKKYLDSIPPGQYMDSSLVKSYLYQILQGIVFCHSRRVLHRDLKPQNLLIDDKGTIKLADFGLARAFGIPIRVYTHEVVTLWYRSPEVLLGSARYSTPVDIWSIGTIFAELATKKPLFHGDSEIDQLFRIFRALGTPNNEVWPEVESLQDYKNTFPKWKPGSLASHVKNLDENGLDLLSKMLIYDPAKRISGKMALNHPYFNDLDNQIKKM
T1 sequence (P14635 whole entry partner): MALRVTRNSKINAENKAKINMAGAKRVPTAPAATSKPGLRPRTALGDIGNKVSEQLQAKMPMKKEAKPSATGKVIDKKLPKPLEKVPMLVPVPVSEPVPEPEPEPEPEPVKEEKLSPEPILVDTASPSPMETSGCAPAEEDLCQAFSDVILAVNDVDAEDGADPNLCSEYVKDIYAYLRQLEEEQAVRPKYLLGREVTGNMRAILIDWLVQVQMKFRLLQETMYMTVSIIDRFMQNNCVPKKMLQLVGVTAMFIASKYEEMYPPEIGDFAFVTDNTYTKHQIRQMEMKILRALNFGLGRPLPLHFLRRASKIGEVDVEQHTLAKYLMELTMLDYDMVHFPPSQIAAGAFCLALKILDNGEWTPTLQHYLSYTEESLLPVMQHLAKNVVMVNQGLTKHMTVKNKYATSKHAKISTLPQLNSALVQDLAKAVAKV

Compound | Apoptosis of B-CLL cells [1] | Weight loss during initial drying ([2]; 0% RH) | Total weight increase ([2]; upon equilibration at 90% RH) [%] | bioavailability [3] [%] | Effect on tumour growth in xenografts [4] | IC50 (CDK1/CyclinB) [nM] | More potent anti-proliferative effect on HCT-116 compared to difluoro-analogue (HCT-116 cell line) | IC50 (HCT-116 cell line) [nM] | IC50 (HCT-116 cell line; listed as Compound of the Invention) [nM] | IC50 for transcription higher than IC50 for proliferation [5] [fold]
CC[C@H](CO)Nc1nc(NCc2ccccc2)c2ncn(C(C)C)c2n1 [CYC 202] | induce in vitro apoptosis | – | – | – | – | – | – | – | – | –
CN1CC[C@H](c2c(O)cc(O)c3c(=O)cc(-c4ccccc4Cl)oc23)[C@H](O)C1 [Flavopiridol] | induce in vitro apoptosis | – | – | – | – | – | – | – | – | –
CS(=O)(=O)N1CCC(NC(=O)c2n[nH]cc2NC(=O)c2c(Cl)cccc2Cl)CC1 [compound of the invention, 4-(2,6-dichloro-benzoylamino)-1H-pyrazole-3-carboxylic acid (1-methanesulphonyl-piperidin-4-yl)-amide] | – | approximately 0.01% | 0.24 | 40 to 50 | inhibition of tumour growth | < 1000 | 6-7 fold | < 1000 | 110 | ~100
